Experimental data reported in patent publication US10799605B2 (3B PHARMACEUTICALS GMBH, priority 2014, dated 2020).
Read-outs that look alike come from different tables or passages of the source.

Assays:
5-HT3 (h) = 5-HT3 (h) (Homo sapiens (Human), UniProt P46098); test: ExpresSProfile: 5-hydroxytryptamine channel 3, antagonist radioligand; assay type: binding; conditions: Test Concentration 1.0E−05 M
NTR1 = NTR1 (Homo sapiens (Human), UniProt P30989); test: Functional Ca2+ mobilisation assay (example part II); assay type: cell-based; conditions: antagonist assay
Procedure, shortened: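 HT29 or NTR1-expressing HEK293 cells loaded with Ca5 dye for 1 h at 37 °C in buffer at pH 7.4, and fluorescence recorded for about 90 s after addition. EC50 derived from agonist serial dilutions; IC50 from antagonists pre-incubated 30 min before an EC80 agonist challenge.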

NOP (ORL1) (h) = NOP (ORL1) (h) (Homo sapiens (Human), UniProt P41146); test: ExpresSProfile: nociception receptor, agonist radioligand; assay type: binding; conditions: Test Concentration 1.0E−05 M
M1 (h) = M1 (h) (Homo sapiens (Human), UniProt P11229); test: ExpresSProfile: muscarinic receptor 1, antagonist radioligand; assay type: binding; conditions: Test Concentration 1.0E−05 M
5-HT transporter (h) = 5-HT transporter (h) (Homo sapiens (Human), UniProt P31645); test: ExpresSProfile: 5-HT transporter, antagonist radioligand; assay type: binding; conditions: Test Concentration 1.0E−05 M
B2 (h) = B2 (h) (Homo sapiens (Human), UniProt P30411); test: ExpresSProfile: bradykinin receptor 2, agonist radioligand; assay type: binding; conditions: Test Concentration 1.0E−05 M
NK2 (h) = NK2 (h) (Homo sapiens (Human), UniProt P21452); test: ExpresSProfile: neurokinin receptor 2, agonist radioligand; assay type: binding; conditions: Test Concentration 1.0E−05 M
EP4 (h) = EP4 (h) (Homo sapiens (Human), UniProt P35408); test: ExpresSProfile: prostaglandin e receptor type 4, agonist radioligand; assay type: binding; conditions: Test Concentration 1.0E−05 M
A2A (h) = A2A (h) (Homo sapiens (Human), UniProt P29274); test: ExpresSProfile: adenosine receptor 2A, agonist radioligand; assay type: binding; conditions: Test Concentration 1.0E−05 M
[1] = system: Ca2+ channel (L, verapamil site) (phenylalkylamine); test: ExpresSProfile: Ca2+ channel, antagonist radioligand; assay type: binding; conditions: Test Concentration 1.0E−05 M
delta 2 (DOP) (h) = delta 2 (DOP) (h) (Homo sapiens (Human), UniProt P41143); test: ExpresSProfile: delta2 opioid receptor, agonist radioligand; assay type: binding; conditions: Test Concentration 1.0E−05 M
AT1 (h) = AT1 (h) (Homo sapiens (Human), UniProt P30556); test: ExpresSProfile: angiotensin receptor 1, antagonist radioligand; assay type: binding; conditions: Test Concentration 1.0E−05 M
NK3 (h) = NK3 (h) (Homo sapiens (Human), UniProt P29371); test: ExpresSProfile: neurokinin receptor 3, antagonist radioligand; assay type: binding; conditions: Test Concentration 1.0E−05 M
[2] = Plasma stability assay, mouse plasma; assay type: in vitro ADME
Experimental: The plasma stability assay was performed to measure the degradation of compounds of the present invention in plasma. This is an important characteristic of a compound as compounds, with the exception of pro-drugs, which rapidly degrade in plasma generally show poor in vivo efficacy.
The plasma was spiked with a 10 mM analyte solution in dimethyl sulfoxide to a final concentration of 10 μM, vortexed, and aliquotted to 50 μl samples. Two aliquots were stored at −20° C. until further treatment. Another two aliquots were incubated using an Eppendorf Thermomixer at 37° C. for 1, 4, and 24 hours. Sample clean-up was performed using a protein precipitation plate (Phenomenex Strata Impact, 64722-1-324-1) and using acetonitrile as precipitation agent. […] An aliquot of 10 μl was diluted with 90 μl 0.1% aqueous trifluoroacetic acid solution. The determination of the analyte in the clean sample solutions was performed on a Thermo TSQ Quantum Ultra triple quadrupole mass spectrometer equipped with a thermo Surveyor HPLC. The chromatographic separation was carried out on a Phenomenex Kinetex XB-C18 HPLC column (50×2 mm, […] particle size) with gradient elution using a mixture of 0.01% trifluoroacetic acid and 0.05% formic acid in water as eluent A and methanol as eluent B (20% B to 100% in 8 min, 400 μl/min, 40° C.). For mass spectrometric detection the selected reaction monitoring (SRM) was used.
Quantitation was performed by external matrix calibration using an internal standard.

5-HT7 (h) = 5-HT7 (h) (Homo sapiens (Human), UniProt P34969); test: ExpresSProfile: 5-hydroxytryptamine receptor 7, agonist radioligand; assay type: binding; conditions: Test Concentration 1.0E−05 M
[3] = read-out: % Inhibition of Control Specific Binding
[4] = read-out: % of Control Specific Binding 1st
[5] = read-out: % of Control Specific Binding 2nd
[6] = read-out: % of Control Specific Binding Mean

Sequence of M1 (h) (P11229 whole entry): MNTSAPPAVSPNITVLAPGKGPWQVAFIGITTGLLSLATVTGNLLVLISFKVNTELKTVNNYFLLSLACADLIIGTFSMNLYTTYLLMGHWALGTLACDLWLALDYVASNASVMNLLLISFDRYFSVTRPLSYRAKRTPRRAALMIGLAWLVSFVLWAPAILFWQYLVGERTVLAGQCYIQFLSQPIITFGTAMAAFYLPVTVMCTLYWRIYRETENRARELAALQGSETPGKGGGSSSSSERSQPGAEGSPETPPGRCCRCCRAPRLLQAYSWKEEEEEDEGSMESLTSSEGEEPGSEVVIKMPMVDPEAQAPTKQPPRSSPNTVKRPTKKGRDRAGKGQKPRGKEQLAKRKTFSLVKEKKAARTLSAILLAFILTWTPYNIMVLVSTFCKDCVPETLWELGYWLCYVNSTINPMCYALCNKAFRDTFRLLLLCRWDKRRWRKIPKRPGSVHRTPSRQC
Sequence of 5-HT3 (h) (P46098 24-478): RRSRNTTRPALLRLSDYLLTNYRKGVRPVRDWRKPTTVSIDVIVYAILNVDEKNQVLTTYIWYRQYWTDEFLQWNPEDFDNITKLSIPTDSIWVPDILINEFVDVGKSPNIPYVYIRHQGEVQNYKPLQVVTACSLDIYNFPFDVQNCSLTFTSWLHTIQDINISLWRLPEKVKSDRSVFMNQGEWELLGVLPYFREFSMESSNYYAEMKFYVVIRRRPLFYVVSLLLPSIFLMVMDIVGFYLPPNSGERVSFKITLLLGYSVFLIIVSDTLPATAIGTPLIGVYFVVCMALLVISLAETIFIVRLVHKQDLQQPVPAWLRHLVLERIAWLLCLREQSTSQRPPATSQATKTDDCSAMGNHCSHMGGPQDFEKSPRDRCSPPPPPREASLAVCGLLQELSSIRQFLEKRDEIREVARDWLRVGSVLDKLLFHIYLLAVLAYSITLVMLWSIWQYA
Sequence of NK3 (h) (P29371 whole entry): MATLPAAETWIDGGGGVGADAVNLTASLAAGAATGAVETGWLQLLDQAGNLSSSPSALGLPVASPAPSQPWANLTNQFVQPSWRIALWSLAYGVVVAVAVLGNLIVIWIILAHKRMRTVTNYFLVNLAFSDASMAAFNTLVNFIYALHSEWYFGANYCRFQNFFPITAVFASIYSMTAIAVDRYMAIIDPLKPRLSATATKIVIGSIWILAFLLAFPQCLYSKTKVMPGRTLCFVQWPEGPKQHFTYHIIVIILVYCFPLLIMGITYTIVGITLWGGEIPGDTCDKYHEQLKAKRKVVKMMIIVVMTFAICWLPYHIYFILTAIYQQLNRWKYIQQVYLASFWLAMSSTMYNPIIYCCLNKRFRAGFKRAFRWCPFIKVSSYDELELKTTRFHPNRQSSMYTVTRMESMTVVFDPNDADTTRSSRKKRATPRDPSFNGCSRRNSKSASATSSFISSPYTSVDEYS
Sequence of AT1 (h) (P30556 whole entry): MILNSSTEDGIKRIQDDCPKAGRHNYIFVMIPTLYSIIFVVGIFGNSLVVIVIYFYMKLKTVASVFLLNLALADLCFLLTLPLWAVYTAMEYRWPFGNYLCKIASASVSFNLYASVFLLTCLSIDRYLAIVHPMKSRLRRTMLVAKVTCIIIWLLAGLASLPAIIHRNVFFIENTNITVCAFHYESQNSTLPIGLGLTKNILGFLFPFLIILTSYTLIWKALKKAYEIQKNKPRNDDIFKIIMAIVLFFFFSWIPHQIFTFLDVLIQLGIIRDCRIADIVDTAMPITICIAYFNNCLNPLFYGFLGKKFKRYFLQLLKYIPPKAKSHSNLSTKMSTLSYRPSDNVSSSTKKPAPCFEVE
Sequence of 5-HT7 (h) (P34969 whole entry): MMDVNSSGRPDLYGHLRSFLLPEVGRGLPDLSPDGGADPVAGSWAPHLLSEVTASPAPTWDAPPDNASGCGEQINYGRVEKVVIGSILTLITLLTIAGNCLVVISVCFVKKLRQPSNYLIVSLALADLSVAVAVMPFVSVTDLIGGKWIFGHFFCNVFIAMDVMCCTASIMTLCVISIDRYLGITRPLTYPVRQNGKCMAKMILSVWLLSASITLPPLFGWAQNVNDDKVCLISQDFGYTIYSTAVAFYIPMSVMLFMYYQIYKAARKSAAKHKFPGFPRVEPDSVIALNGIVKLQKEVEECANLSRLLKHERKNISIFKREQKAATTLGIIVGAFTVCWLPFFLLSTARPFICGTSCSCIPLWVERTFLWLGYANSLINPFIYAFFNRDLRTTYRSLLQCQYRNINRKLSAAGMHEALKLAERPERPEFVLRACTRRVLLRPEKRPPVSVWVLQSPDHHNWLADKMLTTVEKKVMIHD
Sequence of B2 (h) (P30411 whole entry): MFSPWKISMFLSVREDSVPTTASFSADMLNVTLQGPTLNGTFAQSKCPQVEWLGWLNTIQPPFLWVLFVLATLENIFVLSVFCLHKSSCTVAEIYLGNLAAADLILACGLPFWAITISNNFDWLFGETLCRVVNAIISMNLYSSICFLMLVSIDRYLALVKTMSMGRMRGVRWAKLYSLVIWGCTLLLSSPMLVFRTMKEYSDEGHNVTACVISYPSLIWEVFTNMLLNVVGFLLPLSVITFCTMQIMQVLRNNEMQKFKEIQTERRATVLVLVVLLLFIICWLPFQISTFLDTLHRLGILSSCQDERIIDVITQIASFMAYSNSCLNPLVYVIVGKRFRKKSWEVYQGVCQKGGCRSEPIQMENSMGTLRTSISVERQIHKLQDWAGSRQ
Sequence of A2A (h) (P29274 whole entry): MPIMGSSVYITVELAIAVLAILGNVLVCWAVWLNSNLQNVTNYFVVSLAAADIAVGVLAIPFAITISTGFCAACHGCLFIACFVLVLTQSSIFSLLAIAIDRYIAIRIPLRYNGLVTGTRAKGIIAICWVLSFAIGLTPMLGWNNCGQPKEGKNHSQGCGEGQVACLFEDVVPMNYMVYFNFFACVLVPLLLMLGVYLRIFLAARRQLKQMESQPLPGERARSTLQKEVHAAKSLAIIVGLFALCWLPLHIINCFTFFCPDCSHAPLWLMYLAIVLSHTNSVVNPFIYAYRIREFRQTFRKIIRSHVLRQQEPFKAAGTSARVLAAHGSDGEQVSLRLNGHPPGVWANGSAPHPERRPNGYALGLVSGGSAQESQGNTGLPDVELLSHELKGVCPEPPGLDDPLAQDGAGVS
Sequence of NOP (ORL1) (h) (P41146 whole entry): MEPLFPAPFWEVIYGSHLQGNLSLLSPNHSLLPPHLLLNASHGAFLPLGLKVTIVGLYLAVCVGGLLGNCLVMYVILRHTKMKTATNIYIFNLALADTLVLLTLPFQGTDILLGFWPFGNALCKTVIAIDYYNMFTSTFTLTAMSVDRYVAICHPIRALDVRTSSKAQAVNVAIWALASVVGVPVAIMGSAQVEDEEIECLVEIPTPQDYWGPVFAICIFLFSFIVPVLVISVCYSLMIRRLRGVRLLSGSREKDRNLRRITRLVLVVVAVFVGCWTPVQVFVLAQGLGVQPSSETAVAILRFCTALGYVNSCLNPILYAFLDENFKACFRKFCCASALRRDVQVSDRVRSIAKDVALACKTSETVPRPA
Sequence of EP4 (h) (P35408 whole entry): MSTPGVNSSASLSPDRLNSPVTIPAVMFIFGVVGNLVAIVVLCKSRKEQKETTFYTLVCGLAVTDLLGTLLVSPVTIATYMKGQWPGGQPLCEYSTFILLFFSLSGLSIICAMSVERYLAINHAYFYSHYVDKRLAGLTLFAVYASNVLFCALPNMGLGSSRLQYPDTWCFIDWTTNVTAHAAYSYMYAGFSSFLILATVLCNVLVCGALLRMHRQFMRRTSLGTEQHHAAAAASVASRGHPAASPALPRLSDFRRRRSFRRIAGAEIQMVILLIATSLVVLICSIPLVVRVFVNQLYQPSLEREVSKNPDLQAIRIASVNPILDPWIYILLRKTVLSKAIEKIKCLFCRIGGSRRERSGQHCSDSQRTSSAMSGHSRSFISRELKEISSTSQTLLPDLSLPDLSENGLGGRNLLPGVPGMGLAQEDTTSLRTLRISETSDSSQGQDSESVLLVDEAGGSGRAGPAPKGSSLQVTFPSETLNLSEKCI
Sequence of NK2 (h) (P21452 whole entry): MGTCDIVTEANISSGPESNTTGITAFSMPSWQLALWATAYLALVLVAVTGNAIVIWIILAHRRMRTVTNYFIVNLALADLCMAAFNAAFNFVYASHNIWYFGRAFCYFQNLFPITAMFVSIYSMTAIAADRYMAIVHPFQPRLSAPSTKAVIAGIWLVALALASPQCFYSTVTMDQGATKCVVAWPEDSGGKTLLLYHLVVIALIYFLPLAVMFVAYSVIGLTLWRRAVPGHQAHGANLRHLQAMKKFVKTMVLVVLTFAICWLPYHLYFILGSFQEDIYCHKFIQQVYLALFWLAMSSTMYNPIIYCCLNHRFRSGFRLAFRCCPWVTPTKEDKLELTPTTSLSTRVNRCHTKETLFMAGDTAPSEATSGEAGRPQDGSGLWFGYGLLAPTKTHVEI
Sequence of 5-HT transporter (h) (P31645 whole entry): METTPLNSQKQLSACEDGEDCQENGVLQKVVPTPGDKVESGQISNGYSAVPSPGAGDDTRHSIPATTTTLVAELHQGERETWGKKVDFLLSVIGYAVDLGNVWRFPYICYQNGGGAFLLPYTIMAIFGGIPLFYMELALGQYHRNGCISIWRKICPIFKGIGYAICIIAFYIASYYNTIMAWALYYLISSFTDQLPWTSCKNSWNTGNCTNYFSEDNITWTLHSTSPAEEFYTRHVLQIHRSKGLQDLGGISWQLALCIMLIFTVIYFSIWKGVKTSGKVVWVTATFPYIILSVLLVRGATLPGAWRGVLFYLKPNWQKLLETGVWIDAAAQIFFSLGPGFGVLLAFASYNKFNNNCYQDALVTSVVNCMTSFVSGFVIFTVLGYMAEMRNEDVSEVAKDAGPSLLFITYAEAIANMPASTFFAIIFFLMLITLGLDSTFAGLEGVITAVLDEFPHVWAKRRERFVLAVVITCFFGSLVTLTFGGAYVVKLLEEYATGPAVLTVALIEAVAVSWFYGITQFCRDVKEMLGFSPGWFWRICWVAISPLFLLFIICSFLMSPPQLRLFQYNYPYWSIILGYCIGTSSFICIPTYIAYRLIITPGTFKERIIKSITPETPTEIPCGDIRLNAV

`COc1cccc(OC)c1-c1cc(C(=O)NC2(C(=O)O)C3CC4CC(C3)CC2C4)nn1-c1ccc(C(=O)N(C)CCCN(C)CCCN(C)C(=O)CN2CCN(CC(=O)O)CCN(CC(=O)O)CCN(CC(=O)O)CC2)cc1C(C)C` (centres unmarked) [(IIIa), 2-{[1-{4-[(3-{[3-(DOTA-methyl-amino)-propyl]-methyl-amino}-propyl)-methyl-carbamoyl]-2-isopropyl-phenyl}-5-(2,6-dimethoxy-phenyl)-1H-pyrazole-3-carbonyl]-amino}-adamantane-2-carboxylic acid] showed an inhibition at 10 µM (5-HT3 (h); [3]) of -8%, a remaining activity at 10 µM (5-HT3 (h); [4]) of 108% and a remaining activity at 10 µM (5-HT3 (h); [5]) of 108%. The remaining activity at 10 µM (5-HT3 (h); [6]) was 108%, the IC50 (NTR1) was 20 nM and the inhibition at 10 µM (NOP (ORL1) (h); [3]) was -7%. For the same molecule, the remaining activity at 10 µM (NOP (ORL1) (h); [4]) was 104%, the remaining activity at 10 µM (NOP (ORL1) (h); [5]) was 109% and the remaining activity at 10 µM (NOP (ORL1) (h); [6]) was 107%. It also gave an inhibition at 10 µM (M1 (h); [3]) of -25%, a remaining activity at 10 µM (M1 (h); [4]) of 111% and a remaining activity at 10 µM (M1 (h); [5]) of 138%. The remaining activity at 10 µM (M1 (h); [6]) was 125%, the inhibition at 10 µM (5-HT transporter (h); [3]) was -13% and the remaining activity at 10 µM (5-HT transporter (h); [4]) was 103%. The remaining activity at 10 µM (5-HT transporter (h); [5]) was 123%, the remaining activity at 10 µM (5-HT transporter (h); [6]) was 113% and the inhibition at 10 µM (B2 (h); [3]) was 11%. The remaining activity at 10 µM (B2 (h); [4]) was 98.7%, the remaining activity at 10 µM (B2 (h); [5]) was 79.9% and the remaining activity at 10 µM (B2 (h); [6]) was 89.3%. The “% Inhibition of Control Specific Binding” value (NK2 (h)) was 66%, the inhibition at 10 µM (NK2 (h); [3]) was 66% and the remaining activity at 10 µM (NK2 (h); [4]) was 34.5%. It also gave a remaining activity at 10 µM (NK2 (h); [5]) of 33.7%, a remaining activity at 10 µM (NK2 (h); [6]) of 34.1% and an inhibition at 10 µM (EP4 (h); [3]) of 8%. The remaining activity at 10 µM (EP4 (h); [4]) was 89.2%, the remaining activity at 10 µM (EP4 (h); [5]) was 95.5% and the remaining activity at 10 µM (EP4 (h); [6]) was 92.3%. The “% Inhibition of Control Specific Binding” value (A2A (h)) was 5%, the “% of Control Specific Binding 1st” value (A2A (h)) was 104.2% and the “% of Control Specific Binding 2nd” value (A2A (h)) was 85.6%. For the same molecule, the “% of Control Specific Binding Mean” value (A2A (h)) was 94.9%, the “% Inhibition of Control Specific Binding” value [1] was 0% and the “% of Control Specific Binding 1st” value [1] was 96.1%. For the same molecule, the “% of Control Specific Binding 2nd” value [1] was 103.7%, the “% of Control Specific Binding Mean” value [1] was 99.9% and the inhibition at 10 µM (delta 2 (DOP) (h); [3]) was -6%. It also gave a remaining activity at 10 µM (delta 2 (DOP) (h); [4]) of 107%, a remaining activity at 10 µM (delta 2 (DOP) (h); [5]) of 105% and a remaining activity at 10 µM (delta 2 (DOP) (h); [6]) of 106%. For the same molecule, the inhibition at 10 µM (AT1 (h); [3]) was -18%, the remaining activity at 10 µM (AT1 (h); [4]) was 119% and the remaining activity at 10 µM (AT1 (h); [5]) was 117%. For the same molecule, the remaining activity at 10 µM (AT1 (h); [6]) was 118%, the inhibition at 10 µM (NK3 (h); [3]) was -1% and the remaining activity at 10 µM (NK3 (h); [4]) was 102%. For the same molecule, the remaining activity at 10 µM (NK3 (h); [5]) was 98.5%, the remaining activity at 10 µM (NK3 (h); [6]) was 100% and the “stability in mouse plasma” value [2] was “highly stable”. For the same molecule, the “% remaining after 24 h incubation, Mouse plasma” value ([2]; 10 μM, 37° C., 24 h) was greater than 80%, the inhibition at 10 µM (5-HT7 (h); [3]) was 2% and the remaining activity at 10 µM (5-HT7 (h); [4]) was 96.6%. It also gave a remaining activity at 10 µM (5-HT7 (h); [5]) of 99.7% and a remaining activity at 10 µM (5-HT7 (h); [6]) of 98.2%.
